Source: patent US6962941B2, “Tryptase inhibitors” (Altana Pharma AG, priority 2001, dated 2005)

Target: human tryptase
Experiment: Inhibition of human tryptase (apparent dissociation constant, tos-Gly-Pro-Arg-pNA cleavage)
Type: biochemical
Conditions: pKiapp = -log Kiapp (mol/l), in the presence of substrate, heparin 0.1-50 μg/ml
Source text: The documented pathophysiological effects of mast cell tryptase are brought about directly by the enzymatic activity of the protease. Accordingly, they are reduced or blocked by inhibitors which inhibit the enzymatic activity of tryptase. A suitable measure of the affinity of a reversible inhibitor for the target protease is the equilibrium dissociation constant Ki of the enzyme/inhibitor complex. This value of Ki can be determined via the influence of the inhibitor on the tryptase-induced cleavage of a chromogenic peptide-p-nitroanilide substrate or of a fluorogenic peptide-aminomethylcoumarin substrate.
The dissociation constants for the tryptase/inhibitor complexes are determined under equilibrium conditions in accordance with the general proposals of Bieth (Bieth J. G., Pathophysiological Interpretation of kinetic constants of protease inhibitors, Bull. Europ. Physiopath. Resp. 16:183-195, 1980) and the methods of Sommerhoff et al. (Sommerhoff C. P. et al., A Kazal-type inhibitor of human mast cell tryptase: Isolation from the medical leech Hirudo medicinalis, characterization, and sequence analysis, Biol. Chem. Hoppe-Seyler 375: 685-694, 1994).
Human tryptase is prepared pure from lung tissue or is prepared by recombination; the specific activity of the protease which has been determined by titration is normally more than 85% of the theoretical value. […]

For `COC(=O)C1CC(NC(=O)OCC#CCOC(=O)NC2CC(C(=O)OC)N(C(=O)CCc3cccc(CN)c3)C2)CN1C(=O)CCc1cccc(CN)c1.Cl.Cl` (stereo not shown) [Compound 1, 1,4-Bis-{N-[3-(3-aminomethylphenylproplonyl)-2-methoxycarbonylpyrrolidin-4-yl]aminocarbonyloxy}-2-butyne dihydrochloride], which pKiapp is on record?
Its pKiapp is 8.35.
